Assay [1] is described as follows: insulin promoter down-regulators in MIN6 cells, imaging, high-content screening, mouse beta cells (AID 1628). The assay is classed as functional.
Assay [2] deals with BJ. In words: cytotoxicity toward BJ-TERT fibroblasts, dose response, cell-based, RAS-independent, luminescence (AID 1933). The format is functional. As to conditions: Homo sapiens.
Assay [3] is described as follows: cytotoxicity in MIN6 insulinoma cells, dose response, cytotoxicity control, cell-based, mouse insulinoma (AID 2122).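 Also: confirmatory high-throughput counterscreen run to flag cytotoxic compounds; mouse MIN-6 beta cells carrying an insulin promoter eGFP reporter.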 The assay is classed as functional.
The subject of assay [4] is BJ. In words: cells. The assay is classed as functional, cell-based. As to conditions: Homo sapiens.
The subject of assay [5] is BJ. Kind of assay: cytotoxicity toward BJ-TERT-LT-ST fibroblasts, dose response, cell-based, RAS-independent, luminescence (AID 1935).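 Also: BJ fibroblasts immortalized with TERT plus LT and ST oncogenes.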 The assay is classed as functional. The note with it: Homo sapiens.
The nature of assay [6]: cytotoxicity toward DRD oncogenic fibroblasts, dose response, cell-based, non-viral oncogenic, luminescence (AID 1934). The format is functional. As to conditions: Homo sapiens.
Assay [7] has as its system BJ. In words: cytotoxicity toward Ras-transformed BJeLR fibroblasts, dose response, cell-based, alamar blue fluorescence, cherrypicked samples (AID 2631).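 Also: confirmatory dose-response assay in RAS-dependent BJ fibroblasts engineered with TERT, LT and ST, with cytotoxicity read by fluorescence.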 The format is functional. As to conditions: Homo sapiens.
Assay [8] relates to INS1. In words: beta cell apoptosis inhibitors, cytokine rescue, dose response, luminescence, retest (AID 449756).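 Also: cell death triggered by IL-1 beta plus TNF-alpha plus IFN-gamma mixture; protective hits raise ATP signal compared with cytokine alone wells.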 As to conditions: Rattus norvegicus. The assay is classed as functional, cell-based.
Assay [9] in a line: NIH-3T3 fibroblast cytotoxicity, dose response, cytotoxicity control, cell-based, fluorescence, Alamar Blue, secondary assay (AID 2327).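 Also: NIH-3T3 mouse fibroblasts cultured with fluconazole at 8 µg/mL.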 The assay is classed as functional.
Assay [10] in a line: inhibitors of firefly luciferase expression or activity, dose response, H4 neuroglioma cells, luminescence (AID 1990). The assay is classed as functional, cell-based.
The nature of assay [11]: cells. The assay is classed as functional, cell-based.
The nature of assay [12]: Luminescence Cell-Based Dose Response HTS to Identify Inhibitors of 5'UTR Stem-Loop Driven Prion Protein mRNA Translation in H4 Neuroglioblastoma Cells. [Related pubchem assays: 1827 (Project Summary), 1813 (Primary HTS)]. The assay is classed as functional.
Assay [13] in a line: inhibitors of SNCA 5'UTR-driven reporter translation, confirmation, H4 neuroglioma cells, luminescence (AID 1988). The format is functional, cell-based.
The nature of assay [14]: cells. The format is functional, cell-based. This is another data set of the same source.
The subject of assay [15] is HEK293. In words: inhibitors of LMP1-driven NF-kB reporter, dose response, cell-based, HEK293, luciferase, cherry-pick (AID 588343). The assay is classed as functional. As to conditions: Homo sapiens.
For assay [16], the target named is T1, Long-chain-fatty-acid--AMP ligase FadD28 (Mycobacterium tuberculosis, UniProt P9WQ59).
T1 sequence (P9WQ59 whole entry): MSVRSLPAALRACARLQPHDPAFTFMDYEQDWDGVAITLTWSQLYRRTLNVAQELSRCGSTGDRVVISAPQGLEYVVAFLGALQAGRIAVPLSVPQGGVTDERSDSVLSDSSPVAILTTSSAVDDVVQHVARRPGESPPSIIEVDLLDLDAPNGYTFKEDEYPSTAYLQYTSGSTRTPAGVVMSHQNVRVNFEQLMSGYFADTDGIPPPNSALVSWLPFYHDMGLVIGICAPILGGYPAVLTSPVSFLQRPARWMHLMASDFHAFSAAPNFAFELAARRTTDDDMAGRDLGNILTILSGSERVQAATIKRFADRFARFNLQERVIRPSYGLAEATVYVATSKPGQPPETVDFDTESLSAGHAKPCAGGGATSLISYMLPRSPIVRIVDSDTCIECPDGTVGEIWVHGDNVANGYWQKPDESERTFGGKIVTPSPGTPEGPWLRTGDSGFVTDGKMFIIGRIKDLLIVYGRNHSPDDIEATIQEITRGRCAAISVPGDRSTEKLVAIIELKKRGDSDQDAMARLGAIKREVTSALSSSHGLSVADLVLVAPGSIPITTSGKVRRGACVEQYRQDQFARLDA
In words: Fluorescence polarization aasay to screen for inhibitors that compete for the binding of FadD28 to a bisubstrate Measured in Biochemical System Using Plate Reader - 2147-01_Inhibitor_Dose_CherryPick_Activity. The assay is classed as functional, Mycobacterium tuberculosis H37Rv.

Assay [17] concerns the target T2, Heat shock factor protein 1 (Mus musculus, UniProt P38532).
T2 sequence (P38532 whole entry): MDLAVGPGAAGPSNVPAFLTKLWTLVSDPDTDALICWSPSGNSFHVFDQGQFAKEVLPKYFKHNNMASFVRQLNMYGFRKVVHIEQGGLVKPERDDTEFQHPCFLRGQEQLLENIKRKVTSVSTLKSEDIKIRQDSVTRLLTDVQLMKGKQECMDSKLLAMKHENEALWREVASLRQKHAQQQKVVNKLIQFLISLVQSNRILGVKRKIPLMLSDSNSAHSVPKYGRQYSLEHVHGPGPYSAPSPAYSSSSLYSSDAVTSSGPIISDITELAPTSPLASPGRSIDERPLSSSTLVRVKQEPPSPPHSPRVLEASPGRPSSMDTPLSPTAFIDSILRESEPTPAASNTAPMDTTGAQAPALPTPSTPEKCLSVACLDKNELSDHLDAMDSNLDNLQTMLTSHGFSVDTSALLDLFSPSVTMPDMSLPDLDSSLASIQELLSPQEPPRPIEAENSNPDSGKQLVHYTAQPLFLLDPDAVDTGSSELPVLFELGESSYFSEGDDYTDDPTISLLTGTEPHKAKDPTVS
In words: HSF1 potentiators in luciferase reporter cells, confirmation, cell-based, NIH3T3, luminescence, dose retest (AID 435004).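 Also: stress induced by proteasome inhibitor MG132 added 30 min after compound; luciferase reporter driven by HSF1 response element in NIH3T3 cells; actives raise luminescence as potentiators of the MG132 stress response.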 The assay is classed as functional.

Assay [18] deals with Voltage-gated inwardly rectifying potassium channel KCNH2 (Homo sapiens, UniProt Q12809). The note with it: Potency.

Counter-ions that a name gives are not always drawn. The source made the active and inactive calls. Rule as the data show it, for most assays here: actives have a measured EC50 and inactives only a lower limit. Bounds are passed on as bounds.

Voltage-gated inwardly rectifying potassium channel KCNH2, sequence (Q12809 whole entry): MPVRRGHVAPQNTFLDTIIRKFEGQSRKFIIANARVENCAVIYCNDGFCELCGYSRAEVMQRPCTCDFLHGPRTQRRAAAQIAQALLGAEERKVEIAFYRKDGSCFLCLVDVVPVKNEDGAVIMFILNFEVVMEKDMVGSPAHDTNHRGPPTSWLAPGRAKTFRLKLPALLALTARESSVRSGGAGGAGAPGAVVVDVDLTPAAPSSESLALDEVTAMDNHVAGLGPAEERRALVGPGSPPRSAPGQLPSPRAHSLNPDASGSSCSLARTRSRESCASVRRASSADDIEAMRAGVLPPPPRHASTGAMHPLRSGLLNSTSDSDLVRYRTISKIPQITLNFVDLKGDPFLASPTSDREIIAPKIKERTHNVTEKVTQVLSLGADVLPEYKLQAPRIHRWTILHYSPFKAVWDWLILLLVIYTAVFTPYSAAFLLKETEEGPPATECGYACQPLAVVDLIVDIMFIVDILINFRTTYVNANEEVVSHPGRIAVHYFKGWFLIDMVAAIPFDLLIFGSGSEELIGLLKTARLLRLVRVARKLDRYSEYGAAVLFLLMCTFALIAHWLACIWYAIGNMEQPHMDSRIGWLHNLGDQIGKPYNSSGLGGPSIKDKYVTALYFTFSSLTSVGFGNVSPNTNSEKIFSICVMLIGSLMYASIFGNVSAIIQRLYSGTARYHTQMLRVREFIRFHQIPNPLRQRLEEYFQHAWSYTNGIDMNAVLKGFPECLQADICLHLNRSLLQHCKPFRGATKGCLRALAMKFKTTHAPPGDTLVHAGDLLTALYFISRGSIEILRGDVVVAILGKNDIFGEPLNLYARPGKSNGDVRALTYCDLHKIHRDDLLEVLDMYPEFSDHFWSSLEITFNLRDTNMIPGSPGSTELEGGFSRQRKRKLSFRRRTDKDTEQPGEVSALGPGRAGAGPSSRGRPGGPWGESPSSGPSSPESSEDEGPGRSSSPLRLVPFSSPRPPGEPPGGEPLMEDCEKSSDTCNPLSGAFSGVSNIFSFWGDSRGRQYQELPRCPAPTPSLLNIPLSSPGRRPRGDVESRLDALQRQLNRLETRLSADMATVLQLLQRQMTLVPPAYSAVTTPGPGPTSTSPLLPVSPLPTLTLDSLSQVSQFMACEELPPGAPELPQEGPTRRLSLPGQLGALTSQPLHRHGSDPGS

For the molecule `CC(Oc1ccc(Cl)cc1Cl)c1nc(-c2ccc(NC(=O)c3cccnc3)cc2)no1` (centres undefined), the half-inhibitory concentration (IC50) in assay [1] is 0.88 µM (active); in assay [3], 0.928 µM (active). For the same molecule, the EC50 in assay [2] was > 150 µM (not active); in assay [4], 3.32 µM (active); in assay [5] it was > 150 µM (not active); in [6] it was 25.4 µM (active); in assay [7], > 66.7 µM (inactive). The AC50 in assay [8] is 0.61 µM (active).
Take `CCN(CC)c1ccc(/C=N/NC(=O)c2ccc3[nH]cnc3c2)c(O)c1`: the EC50 was 6.84 µM (active) in [9]; 3.35 µM (active) in assay [10]; 4.19 µM (active) in assay [2]; 8.39 µM (active) in assay [11]; 4.29 µM (active) in assay [12]; 7.51 µM (active) in [13]. For the same molecule, the 50% effective concentration (EC50) is 7.44 µM (inconclusive) in assay [4]; > 350 µM (not active) in [14]; 9.27 µM (active) in assay [5]; 4.54 µM (active) in assay [6]; 0.944 µM (active) in [7]. Further, the AC50 was 7.07 µM (active) in assay [15], 0.827 µM (active) in [8] and 13.1 µM (active) in [16].
Turning to `COc1cccc(OC)c1OCCNCC1COc2ccccc2O1` (centres undefined) [2- (2,6-DIMETHOXYPHENOXYETHYL)AMINOMETHYL-1,4-BENZODIOXANE HYDROCHLORIDE (WB 4101)], the EC50 in [17] was > 260 µM (inactive). Besides, the half-maximal activity concentration (AC50) in assay [18] is 11.2 µM (inconclusive).

For the origin of these results see ChEMBL document CHEMBL1201862, “PubChem BioAssay data set” (2004).
